# Test results: ChEMBL document CHEMBL1154875, “Pharmacophoric model building for antitubercular activity of the individual Schiff bases of small combinatorial library” (2010)
# Tested on: Mycobacterium tuberculosis
# Experiment: Antimicrobial activity against Mycobacterium tuberculosis H37Rv ATCC 27294 at 6.25 ug/ml after 24 hrs by Microplate Almar blue assay
# Type: functional
# Details: H37Rv ATCC 27294, 24 h
row,Structure (SMILES),inhibition at 6.25 µg/mL [%]
1,C/C(=N\NC(=O)c1ccncc1)c1ccc([N+](=O)[O-])cc1,99
2,O=C(NN/C=C/c1ccccc1)c1cc(/C=C\c2ccco2)on1,80
3,O=C(N/N=C/c1ccc([N+](=O)[O-])cc1)c1ccco1,35
4,CC(=O)OC(O/C(C)=N/NC(=O)c1ccncc1)c1ccc([N+](=O)[O-])o1 (centres undefined),84
5,C/C(=N/NC(=O)c1cc(/C=C\c2ccco2)on1)c1ccc([N+](=O)[O-])cc1,66
6,C/C(=N/NC(=O)c1ccco1)c1ccc([N+](=O)[O-])cc1,62
7,CC(=O)OC(O/C(C)=N/NC(=O)c1cc(/C=C\c2ccco2)on1)c1ccc([N+](=O)[O-])o1 (centres undefined),59
8,O=C(NN/C=C/c1ccccc1)c1ccncc1,54
9,O=C1Nc2ccccc2/C1=N\NC(=O)c1ccco1,41
10,O=C1Nc2ccccc2/C1=N\NC(=O)c1cc(/C=C\c2ccco2)on1,39
11,O=C(N/N=C/c1ccc([N+](=O)[O-])cc1)c1cc(/C=C\c2ccco2)on1,37
12,CC(=O)OC(O/C(C)=N/NC(=O)c1ccco1)c1ccc([N+](=O)[O-])o1 (centres undefined),99
13,O=C1Nc2ccccc2/C1=N\NC(=O)c1cccnc1,57
14,O=C(N/N=C/c1ccccc1)c1ccncc1 [N'-BENZYLIDENE ISONICOTINOHYDRAZIDE],51
